These results are taken from patent US20260176320A1, “MODULATORS OF G-PROTEIN COUPLED RECEPTORS” (priority 2018, published 2026).

As a reminder, the Emax is the greatest response seen or fitted, relative to the assay's reference.

Where two headings read alike, the source gives them in different places. Numbered stars: 1 amine (or outer) side, 2 acyl side, 3 side chain; on linkers, the order of the positions; unused ones are H or OH. Square brackets hold non-standard residues; d marks the D form. Side chains are listed from the residue outwards. Peptide text beside a SMILES is read from it. * marks the point of attachment. Ala(1H-tetrazol-5-yl) = N[C@@H](Cc1nnn[nH]1)C(=O)O; γGlu = O=C(O)[C@H](CCC(=O)[*:2])N[*:1]; Palmitoyl = CCCCCCCCCCCCCCCC(=O)*; X6 = O=C(CSCC(=O)*)NCCN1CCCCC1=O; Aib = CC(C)(N)C(=O)O

Assay type in all cases: cell-based
One assay deals with T1, GIP-R (Homo sapiens, UniProt P48546).
T1 sequence (P48546 22-466): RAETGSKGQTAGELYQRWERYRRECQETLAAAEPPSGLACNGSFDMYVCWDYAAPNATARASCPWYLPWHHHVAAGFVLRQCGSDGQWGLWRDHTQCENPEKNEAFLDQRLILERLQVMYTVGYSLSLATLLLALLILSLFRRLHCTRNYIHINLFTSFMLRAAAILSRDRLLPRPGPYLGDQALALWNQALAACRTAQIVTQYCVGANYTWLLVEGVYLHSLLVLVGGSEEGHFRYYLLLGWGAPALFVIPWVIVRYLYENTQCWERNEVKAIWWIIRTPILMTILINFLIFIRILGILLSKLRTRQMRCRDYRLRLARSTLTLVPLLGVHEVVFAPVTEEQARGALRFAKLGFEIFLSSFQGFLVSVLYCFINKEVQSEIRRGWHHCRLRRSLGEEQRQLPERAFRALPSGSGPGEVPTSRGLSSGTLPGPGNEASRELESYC
Description: HitHunter cAMP assay (GIP-R). The following applies: cAMP; for Emax: read-out: (Emax) GIP-R. The procedure, abridged:
(§1)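 Agonist stimulation lasts 30 min at room temperature on 10,000 cells per well, with phosphodiesterase blocked by 625 μM IBMX. Accumulated cAMP is quantified by competitive antibody luminescence after overnight development.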
Background: Changes in cAMP serve as a functional read-out for many G protein-coupled receptors.

The target in assay [1] is T2, GLP-1R (Homo sapiens, UniProt P43220). Description: PathHunter β-arrestin assay. The essentials:
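Recruitment of β-arrestin is measured by luminescence after cells, plated overnight, receive serially diluted agonist for 90 min at 37 °C in medium with 0.2% BSA. Detection reagent then develops for 3 h at room temperature, protected from light.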

Assay [2] addresses T2, GLP-1R. The assay can be described thus: HitHunter cAMP assay (GLP-1R). Conditions: cAMP; for Emax: read-out: (Emax) GLP-1R. The procedure, abridged: as §1
[3] abbreviates: Table 3A, read-out: EC50 GIP-R/nM.
The mark [4] stands for this setting: PathHunter β-arrestin assay, read-out: β-arrestin activity EC50.
The mark [5] stands for this setting: Table 3A, read-out: EC50 GLP-1R/nM.

T2 sequence (P43220 24-463): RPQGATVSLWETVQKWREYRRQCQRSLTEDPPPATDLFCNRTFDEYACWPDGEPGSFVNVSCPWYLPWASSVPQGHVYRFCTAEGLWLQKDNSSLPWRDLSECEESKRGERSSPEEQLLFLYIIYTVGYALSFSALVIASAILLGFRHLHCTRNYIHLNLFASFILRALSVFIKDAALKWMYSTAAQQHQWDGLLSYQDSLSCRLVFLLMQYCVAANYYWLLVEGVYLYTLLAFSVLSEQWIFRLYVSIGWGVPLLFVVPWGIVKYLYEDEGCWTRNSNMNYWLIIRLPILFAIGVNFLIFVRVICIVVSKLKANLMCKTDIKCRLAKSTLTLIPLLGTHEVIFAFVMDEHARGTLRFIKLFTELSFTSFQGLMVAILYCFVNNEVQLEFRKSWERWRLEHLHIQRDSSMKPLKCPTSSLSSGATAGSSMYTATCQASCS

Turning to `CCCCCCCCCCCCCCCC(=O)N[C@@H](CCC(=O)NCCCC[C@H](NC(=O)[C@H](CO)NC(=O)[C@@H]1CCCN1C(=O)[C@@H]1CCCN1C(=O)[C@@H]1CCCN1C(=O)[C@H](C)NC(=O)CNC(=O)[C@H](CO)NC(=O)[C@H](CO)NC(=O)[C@@H]1CCCN1C(=O)CNC(=O)CNC(=O)[C@H](C)NC(=O)[C@H](CC(C)C)NC(=O)[C@H](CC(C)C)NC(=O)[C@H](Cc1c[nH]c2ccccc12)NC(=O)[C@H](CC(N)=O)NC(=O)[C@@H](NC(=O)[C@H](Cc1ccccc1)NC(=O)[C@H](CCC(=O)O)NC(=O)C(C)(C)NC(=O)[C@H](C)NC(=O)[C@H](C)NC(=O)[C@H](CCC(N)=O)NC(=O)[C@H](CCCCN)NC(=O)[C@H](CC(=O)O)NC(=O)[C@H](CC(C)C)NC(=O)[C@H](Cc1ccc(O)cc1)NC(=O)[C@@H](NC(=O)[C@H](CO)NC(=O)[C@H](Cc1ccc(O)cc1)NC(=O)[C@H](CC(=O)O)NC(=O)[C@H](CO)NC(=O)[C@@H](NC(=O)[C@H](Cc1ccccc1)NC(=O)[C@@H](NC(=O)CNC(=O)[C@H](Cc1nn[nH]n1)NC(=O)CSCC(=O)NCCN1CCCCC1=O)[C@@H](C)O)[C@@H](C)O)[C@@H](C)CC)C(C)C)C(N)=O)C(=O)O` [Compound 223] (X6-[Ala(1H-tetrazol-5-yl)]GTFTSDYSIYLDKQAA[Aib]EFVNWLLAGGPSSGAPPPSK([γGlu-Palmitoyl])-NH2), the Emax on GIP-R (Table 3A) is 91%; at GLP-1R [2] (Table 3A) it was 101%. In addition, the EC50 on GIP-R (setting [3]) is 0.1 to 1 nM; at GLP-1R [1] (setting [4]), 10 to 1000 nM; on GLP-1R [2] (setting [5]), below 0.1 nM.

Turning to `CC[C@H](C)[C@H](NC(=O)[C@H](CO)NC(=O)[C@H](Cc1ccc(O)cc1)NC(=O)[C@H](CC(=O)O)NC(=O)[C@H](CO)NC(=O)[C@@H](NC(=O)[C@H](Cc1ccccc1)NC(=O)[C@@H](NC(=O)CNC(=O)[C@H](CCC(=O)O)NC(=O)COCC(=O)NCCN1C(=O)CSC1=O)[C@@H](C)O)[C@@H](C)O)C(=O)N[C@@H](Cc1ccc(O)cc1)C(=O)N[C@@H](CC(C)C)C(=O)N[C@@H](CC(=O)O)C(=O)N[C@@H](CCCCN)C(=O)N[C@@H](CCC(N)=O)C(=O)N[C@@H](C)C(=O)N[C@@H](C)C(=O)NC(C)(C)C(=O)N[C@@H](CCC(=O)O)C(=O)N[C@@H](Cc1ccccc1)C(=O)N[C@H](C(=O)N[C@@H](CC(N)=O)C(=O)N[C@@H](Cc1c[nH]c2ccccc12)C(=O)N[C@@H](CC(C)C)C(=O)N[C@@H](CC(C)C)C(=O)N[C@@H](C)C(=O)NCC(=O)NCC(=O)N1CCC[C@H]1C(=O)N[C@@H](CO)C(=O)N[C@@H](CO)C(=O)NCC(=O)N[C@@H](C)C(=O)N1CCC[C@H]1C(=O)N1CCC[C@H]1C(=O)N1CCC[C@H]1C(=O)N[C@@H](CO)C(=O)N[C@@H](CCCCN)C(N)=O)C(C)C` [Compound 194], the EC50 on GIP-R (Table 3, read-out: EC50 GIP-R/nM) was above 1000 nM; on GIP-R (setting [3]) it was above 1000 nM; at GLP-1R [1] (setting [4]), above 1000 nM; at GLP-1R [2] (Table 3, read-out: EC50 GLP-1R/nM), 1 to 10 nM; on GLP-1R [2] (setting [5]) it was 1 to 10 nM. At GIP-R (read-out: (Emax) GIP-R at 1 μM, Table 3, at 1 μM), the maximal response (Emax) at 1 µM was 12%. The maximum response (Emax) at GLP-1R [2] (Table 3) and on GLP-1R [2] (Table 3A) was 98% throughout.

As to `CC[C@H](C)[C@H](NC(=O)[C@H](CO)NC(=O)[C@H](Cc1ccc(O)cc1)NC(=O)[C@H](CC(=O)O)NC(=O)[C@H](CO)NC(=O)[C@@H](NC(=O)[C@H](Cc1ccccc1)NC(=O)[C@@H](NC(=O)CNC(=O)[C@H](CCC(=O)O)NC(=O)CSCC(=O)NCCN1C(=O)c2ccc(C(C)(C)C)cc2C1=O)[C@@H](C)O)[C@@H](C)O)C(=O)N[C@@H](Cc1ccc(O)cc1)C(=O)N[C@@H](CC(C)C)C(=O)N[C@@H](CC(=O)O)C(=O)N[C@@H](CCCCN)C(=O)N[C@@H](CCC(N)=O)C(=O)N[C@@H](C)C(=O)N[C@@H](C)C(=O)NC(C)(C)C(=O)N[C@@H](CCC(=O)O)C(=O)N[C@@H](Cc1ccccc1)C(=O)N[C@H](C(=O)N[C@@H](CC(N)=O)C(=O)N[C@@H](Cc1c[nH]c2ccccc12)C(=O)N[C@@H](CC(C)C)C(=O)N[C@@H](CC(C)C)C(=O)N[C@@H](C)C(=O)NCC(=O)NCC(=O)N1CCC[C@H]1C(=O)N[C@@H](CO)C(=O)N[C@@H](CO)C(=O)NCC(=O)N[C@@H](C)C(=O)N1CCC[C@H]1C(=O)N1CCC[C@H]1C(=O)N1CCC[C@H]1C(=O)N[C@@H](CO)C(=O)N[C@@H](CCCCN)C(N)=O)C(C)C` [Compound 164], the EC50 on GIP-R (EC50 GIP-R/nM, Table 3) was 10 to 100 nM; at GIP-R (EC50 GIP-R/nM, Table 3A), 10 to 100 nM; on GLP-1R [1], above 1000 nM; on GLP-1R [2] (EC50 GLP-1R/nM, Table 3), 10 to 100 nM; at GLP-1R [2] (EC50 GLP-1R/nM, Table 3A) it was 10 to 100 nM. Moreover, the Emax at GIP-R (Table 3) was 99 to 105%; at GIP-R (Table 3A) it was 99 to 105%; at GLP-1R [2] (Table 3) it was 68%; at GLP-1R [2] (Table 3A) it was 68%.

With `CC[C@H](C)[C@H](NC(=O)[C@H](CO)NC(=O)[C@H](Cc1ccc(O)cc1)NC(=O)[C@H](CC(=O)O)NC(=O)[C@H](CO)NC(=O)[C@@H](NC(=O)[C@H](Cc1ccccc1)NC(=O)[C@@H](NC(=O)CNC(=O)[C@H](CCC(=O)O)NC(=O)CC(=O)NCCCN1C(=O)c2ccc(C)cc2C1=O)[C@@H](C)O)[C@@H](C)O)C(=O)N[C@@H](Cc1ccc(O)cc1)C(=O)N[C@@H](CC(C)C)C(=O)N[C@@H](CC(=O)O)C(=O)N[C@@H](CCCCN)C(=O)N[C@@H](CCC(N)=O)C(=O)N[C@@H](C)C(=O)N[C@@H](C)C(=O)NC(C)(C)C(=O)N[C@@H](CCC(=O)O)C(=O)N[C@@H](Cc1ccccc1)C(=O)N[C@H](C(=O)N[C@@H](CC(N)=O)C(=O)N[C@@H](Cc1c[nH]c2ccccc12)C(=O)N[C@@H](CC(C)C)C(=O)N[C@@H](CC(C)C)C(=O)N[C@@H](C)C(=O)NCC(=O)NCC(=O)N1CCC[C@H]1C(=O)N[C@@H](CO)C(=O)N[C@@H](CO)C(=O)NCC(=O)N[C@@H](C)C(=O)N1CCC[C@H]1C(=O)N1CCC[C@H]1C(=O)N1CCC[C@H]1C(=O)N[C@@H](CO)C(=O)N[C@@H](CCCCN)C(N)=O)C(C)C` [Compound 128], the maximal response (Emax) at GIP-R (Table 3) was 68%; at GIP-R (Table 3A), 68%; at GLP-1R [2] (Table 3), 99%; at GLP-1R [2] (Table 3A) it was 99%. The EC50 at GIP-R (read-out: EC50 GIP-R/nM, Table 3) is 1 to 100 nM; on GIP-R (read-out: EC50 GIP-R/nM, Table 3A), 1 to 100 nM; at GLP-1R [1], above 1000 nM; at GLP-1R [2] (EC50 GLP-1R/nM, Table 3), 1 to 10 nM; on GLP-1R [2] (EC50 GLP-1R/nM, Table 3A) it was 1 to 10 nM.

Turning to `CCCCCCCCCCCCCCCC(=O)N[C@@H](CCC(=O)NCCCC[C@H](NC(=O)[C@H](CO)NC(=O)[C@@H]1CCCN1C(=O)[C@@H]1CCCN1C(=O)[C@@H]1CCCN1C(=O)[C@H](C)NC(=O)CNC(=O)[C@H](CO)NC(=O)[C@H](CO)NC(=O)[C@@H]1CCCN1C(=O)CNC(=O)CNC(=O)[C@H](C)NC(=O)[C@H](CC(C)C)NC(=O)[C@H](CC(C)C)NC(=O)[C@H](Cc1c[nH]c2ccccc12)NC(=O)[C@H](CC(N)=O)NC(=O)[C@@H](NC(=O)[C@H](Cc1ccccc1)NC(=O)[C@H](CCC(=O)O)NC(=O)C(C)(C)NC(=O)[C@H](C)NC(=O)[C@H](C)NC(=O)[C@H](CCC(N)=O)NC(=O)[C@H](CCCCN)NC(=O)[C@H](CC(=O)O)NC(=O)[C@H](CC(C)C)NC(=O)[C@H](Cc1ccc(O)cc1)NC(=O)[C@@H](NC(=O)[C@H](CO)NC(=O)[C@H](Cc1ccc(O)cc1)NC(=O)[C@H](CC(=O)O)NC(=O)[C@H](CO)NC(=O)[C@@H](NC(=O)[C@H](Cc1ccccc1)NC(=O)[C@@H](NC(=O)CNC(=O)[C@H](CCC(=O)O)NC(=O)CSCC(=O)NCCN1CCCC(C)(C)C1=O)[C@@H](C)O)[C@@H](C)O)[C@@H](C)CC)C(C)C)C(N)=O)C(=O)O` [Compound 10], the EC50 on GIP-R (EC50 GIP-R/nM, Table 3) was 1 to 10 nM; on GIP-R (EC50 GIP-R/nM, Table 3A) it was 1 to 10 nM; at GLP-1R [1], above 1000 nM; at GLP-1R [2] (EC50 GLP-1R/nM, Table 3) it was 0.1 to 1 nM; on GLP-1R [2] (EC50 GLP-1R/nM, Table 3A), 0.1 to 1 nM. The Emax on GIP-R (Table 3) amounted to 32%; at GIP-R (Table 3A) it was 32%; on GLP-1R [2] (Table 3) it was 95%; at GLP-1R [2] (Table 3A), 95%.
